Assay results: patent US12502392B2, “DRG-MDM2-6 for use as a novel mouse double minute 2 (MDM2) inhibitor” (BAHCESEHIR UNIVERSITESI, priority 2021, dated 2025)

Tests used:
[1] = test system: MDA-MB231 breast cancer cell line; experiment: MTT cell viability assay (IC50); assay type: cell-based; details: Homo sapiens, MDA-MB-231; MDA-MB231 cells, single dose of treatment, 10^−9 to 10^−4 M, 570 nm absorbance, FIG. 1; read-out: IC50 (half-maximal inhibitory concentration)
Experimental: HCT 116 colon cancer and MDA-MB231 breast cancer cell lines are used in cell culture experiments.
Cells were treated with high-glucose DMEM medium (Biosera) supplemented with 10% FBS (Gibco) and 1× penicillin/streptomycin (Multicell). The assay was designed to contain 10,000 cells for each well of 24-well cell culture plates before being treated with inhibitors.
Compound of formula I was dissolved with DMSO as 20 mM stock. 24 hours later, the solution was diluted in DMEM with 10% FBS and final concentration of vehicle DMSO was 0.5% at maximum. Therefore, the vehicle group included 0.5% DMSO concentration in experiments. Intensive cultivation of cells causes a decrease in proliferation capacity.
The MTT cell viability assay was used to detect values of half-maximal inhibitory concentration (IC50). Different concentrations of compound of formula I ranging between 10^−9 to 10^−4 M were tested on MDA-MB231 cell lines with single dose of treatment. 570 nm absorbance values were recorded and IC50 values were calculated by dose response-inhibition curves and nonlinear regression analysis on Graphpad Prism 8 software. IC50 value of compound of formula I was determined to be […] (FIG. 1).

MDM2 protein = MDM2 protein (Homo sapiens, UniProt Q00987); details: state of the art statement; cited from earlier work
MDM2 protein, sequence (Q00987 whole entry, species assumed): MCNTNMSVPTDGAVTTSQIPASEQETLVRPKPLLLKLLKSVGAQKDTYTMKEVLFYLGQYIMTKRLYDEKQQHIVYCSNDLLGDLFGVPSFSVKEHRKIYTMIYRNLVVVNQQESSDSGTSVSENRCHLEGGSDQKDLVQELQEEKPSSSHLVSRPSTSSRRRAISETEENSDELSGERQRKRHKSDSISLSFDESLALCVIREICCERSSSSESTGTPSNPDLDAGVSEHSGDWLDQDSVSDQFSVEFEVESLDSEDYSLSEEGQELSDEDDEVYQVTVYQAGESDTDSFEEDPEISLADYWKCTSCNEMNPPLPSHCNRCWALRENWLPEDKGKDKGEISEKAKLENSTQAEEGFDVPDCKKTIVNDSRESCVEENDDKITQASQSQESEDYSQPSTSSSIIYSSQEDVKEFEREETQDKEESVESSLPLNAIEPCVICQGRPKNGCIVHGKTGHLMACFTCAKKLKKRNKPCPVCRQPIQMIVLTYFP

Molecule | IC50 [1] | binding affinity to MDM2 relative to a natural p53 peptide (MDM2 protein)
O=C(CCCc1nc2ccccc2c(=O)[nH]1)NC(Cc1c[nH]c2ccccc12)C(=O)O (centres unmarked) [compound of formula I] | 13 µM | 
MI-319 |  | 500 fold
